Data set [1] can be described thus: Residual ratio of coupler in test piece after thermal acceleration, HPLC (Example 9). It counts as physicochemical. As to conditions: 60° C., 1 hour, oven under vacuum; relative to test piece before thermal acceleration; HPLC 254 nm; FIG. 5. The protocol: Using a coating liquid having a composition shown in the following Table 6, a polyether sulfone membrane (membrane thickness: 130 μm) manufactured by Terumo Corporation was coated by Kiss-Coat method, and dried for 18 hours at 37° C. Then, the membrane was punched out to give a circle of φ6 mm as a test piece.
The test piece was placed in an oven under vacuum at 60° C. for 1 hour to be subjected to thermal acceleration. Then, the test piece was subjected to ultrasonic treatment for 10 minutes using 1 ml of an aqueous 60% acetonitrile solution, and extracted. The amount of reagent in the resultant extract was determined by HPLC under such conditions as of eluent: 60% of acetonitrile/50 mM of phosphate buffer (pH 7.5), eluent flow rate: 1 mL/minute, column temperature: 40° C., column: Hydrosphere C18 250×4.6 mm (manufactured by YMC Co., Ltd.), measuring wavelength: 254 nm, and injection volume: 20 μL. According to this method, the residual ratios of 4-AA and CP2 contained in the test piece after thermal acceleration were respectively compared with those of the test pieces before thermal acceleration. It is noted from the results shown in FIG. 5 that the residual ratio of 4-AA is not more than 70%, while the residual ratio of CP2 is approximately 100%. […]

Data set [2] in a line: Maximum concentration of coating liquid for measuring glucose (solubility of coupler). Here is the method:
As an example of a coating liquid composition for measuring glucose, an experiment was conducted to determine a maximum concentration of a coating liquid.
Basic Composition (in 100 mL Water)

Data set [3] is described as follows: Time-dependent change in reflection-absorbance of test piece (Example 7). Particulars: test piece with MAOS, succinate buffer pH 5.0; human blood, hematocrit 40%, 400 mg/dL blood glucose; FIG. 3. The protocol: Using a coating liquid having a composition shown in the following Table 5, a polyether sulfone membrane (membrane thickness: 130 μm) manufactured by Terumo Corporation was coated by Kiss-Coat method, and dried for 18 hours at 37° C. Then, the membrane was cut to give a 1-cm square as a test piece.
The evaluation using blood was conducted by fixing the test piece in a reflectance spectrophotometer, adding 1 μL of specimen dropwise onto the test membrane from above, and measuring reflection-absorbance continuously or at the predetermined time.
The time-dependent changes in the reflection-absorbance was measured using as a coupler compound 4-amino antyprine (4-AA), CP1 or CP2, the test piece prepared by the above method, and human blood adjusted to 40% of hematocrit level and 400 mg/dL of blood glucose level as specimen. It is noted from the results shown in FIG. 3 that 15 seconds was required for reflection-absorbance to become steady when using 4-AA, a conventional coupler, while less than 5 seconds was required for reflection-absorbance to become steady when using CP1, and particularly when using CP2, reflection-absorbance reached peak within only about 3 seconds. That is, it was observed that a measuring time was able to be shortened by using the reagent composition of the present invention.

For `Cc1c(N)c(=O)n(-c2ccccc2)n1C` [4-AA, 4-aminoantipyrine, reference compound], in data set [1], the “Residual ratio in test piece after thermal acceleration” value is listed as “not more than 70%”. The same molecule had a Solubility of coupler in data set [2] (how many times the amounts of all reagents of the basic composition (100 mL water, TOOS, Triton X-100, citrate pH 5.0) can be increased and still give a uniform solution, coupler equimolar to 4-AA) of 5 times by volume. In addition, the “Time required for reflection-absorbance to become steady / reach peak” value (“Time required … to become steady / reach peak” below) in data set [3] stood at 15 s.
For the molecule `Cc1c(N)c(=O)n(-c2ccc(C(=O)O)cc2)n1C` [CP1, 4-amino-1-(4-carboxyphenyl)-2,3-dimethyl-5-pyrazolone], the “Solubility as compared with 4-aminoantipyrine” value in data set [2] is recorded as “high solubility”. In data set [2] (pH 5), this molecule returned a Solubility of coupler of 8 times by volume. Further, the “Time required … to become steady / reach peak” value in data set [3] is given as “less than 5 seconds”.
For `Cc1c(N)c(=O)n(-c2ccc(S(=O)(=O)O)cc2)n1C` [CP2, 4-amino-1-(4-sulfophenyl)-2,3-dimethyl-5-pyrazolone], the “Residual ratio in test piece after thermal acceleration” value in data set [1] was “approximately 100%”. In data set [2], the “Solubility as compared with 4-aminoantipyrine” value is “high solubility”. In data set [2] (pH 5), this molecule returned a Solubility of coupler of 10 times by volume. Besides, the “Time required … to become steady / reach peak” value in data set [3] was “about 3 seconds”.
Take `Cc1c(N)c(=O)n(-c2cccc(S(=O)(=O)O)c2)n1C` [CP6, 4-amino-1-(3-sulfophenyl)-2,3-dimethyl-5-pyrazolone]: the “Solubility as compared with 4-aminoantipyrine” value in data set [2] is reported as “high solubility”. In addition, the Solubility of coupler in data set [2] (pH 5) is recorded as 10 times by volume.

(Values after patent US20100062464A1, “OXIDATIVE CHROMOGENIC COMPOUND OR SALT THEREOF AND PRODUCTION METHOD THEREOF, AND REAGENT COMPOSITION AND TEST INSTRUMENT USING THE SAME” (Terumo Kabushiki Kaisha, priority 2007, published 2010).)
